Experiment [1] deals with MLL1-WDR5 protein-protein interaction (Homo sapiens (Human), UniProt P61964). Put plainly: WDR5 TR-FRET assay of inhibition against MLL1-WDR5 protein-protein interaction. In kind it is binding. As for the experimental part:
WDR5 TR-FRET Assay Procedure: Stock compounds were transferred to the assay plate by Echo Liquid Handler. Reactions were performed in the assay buffer (1×PBS, 300 mM NaCl, 0.5 mM TCEP, 0.1% CHAPS) containing 5 nM WDR5 protein, 10 nM peptide (Ac-ARTEVHLRKS-[Ahx-Ahx] [C]-Alexa Fluor 488-NH2) and 0.25 nM Tb-anti His antibody (Tb-Ab) in 384-well white plate (PerkinElmer) with a final volume of 20 μl. Compounds were incubated with WDR5 protein for 30 min at room temperature. Plates were covered, protected from light and incubated for 60 min at room temperature after adding the peptide and Tb-Ab. EnVision Multimode Plate Reader (PerkinElmer) was used for the TR-FRET assay with excitation wavelength at 340 nm and emission wavelength at 495 and 520 nm. The ratio of the 520/495 wavelengths were used to assess the degree of the FRET signal. IC50 was calculated by fitting the inhibition data using XLfit software to sigmoidal dose-response model.
Biphenyl compound DDO-2084 was reported to be a small molecule inhibitor that can inhibit MLL1-WDR5 protein-protein interaction, reduce MLL1 enzyme catalytic activity, and downregulate the expression of Hox and Meis-1 genes (Eur. J. Med. Chem. 2016, 124, 480-489). DDO-2084 is used as a positive control compound.

The test system of the next experiment is MV-411 cells. Nature of the experiment: Anti-proliferative activity against leukemia cells (CellTiterGlo viability, 72 hrs). In kind it is cell-based. The conditions noted are these: MV4-11, MV-411 human acute monocytic leukemia cell. As for the experimental part: Procedure: MV-411 or Molm-13 cells were seeded into 384 well plates at 2000 cells/well density in 50 uL according plate map and were allowed to naturally sediment by waiting about 30 min in Clean Bench. Next, plated cells were centrifuged for 1 min at 1000 rpm and the excess cells were transferred into the flasks for further culture. Cells in the assay plates were incubated (at least 4 hrs) at 37° C., 5% CO2 for next process followed by adding the compounds as the plate map indicated. The tests were performed in duplicates with treatment of compounds at 10 pts 3 fold titration in 384 well plates. Taxol was as positive control while DMSO as negative control. To rule out edge effect, the wells on the edge were not seeded and therefore one 384 well plate holds 13 compounds. Cells viability was measured 72 hrs after incubation with compounds and using CellTiterGlo (promega) viability assay according to manufactory's instruction to check the ATP production in each well.
Experiments on anti-proliferative activity against leukemia cells were conducted with some of the compounds of the invention.
In general terms: In ATP-based viability assays light output follows the ATP content of the culture.

Where [2] appears, read: Table 7, read-out: WDR5 TR-FRET Assay (IC50 nM).
The mark [3] stands for this setting: WDR5 TR-FRET, 5 nM WDR5 protein, 10 nM peptide, read-out: MLL1-WDR5 PPI inhibitory activity.

Each structure is given as a SMILES string. Read-outs that look alike come from different tables or passages of the source. A value given as a limit tells only on which side of the number the result lay.

On to `C[C@H]1CN(c2cc(F)c(-c3ccc(C(=O)NCC4CCOCC4)cc3)cc2Nc2ncnc(Cl)c2N)CCN1C` [DDO-2213_016, (S)-5′-((5-amino-6-chloropyrimidin-4-yl)amino)-4′-(3,4-dimethylpiperazin-1-yl)-2′-fluoro-N-((tetrahydro-2H-pyran-4-yl)methyl)-[1,1′-biphenyl]-4-carboxamide], for which the IC50 in experiment [1] (setting [2]) turned out to be 12.2 nM. In the experiment on MV-411 cells (Table 7), this compound had a 50% growth inhibitory concentration (GI50) of 6.31 µM.
For `C[C@@H]1CN(c2cc(F)c(-c3ccc(CN4CCOCC4)cc3)cc2Nc2ncnc(Cl)c2N)C[C@H](C)N1C` [DDO-2213_018, 6-chloro-N4-(6-fluoro-4′-(morpholinomethyl)-4-((3S,5R)-3,4,5-trimethylpiperazin-1-yl)-[1,1′-biphenyl]-3-yl)pyrimidine-4,5-diamine] the same measures were 110 nM and 10.8 µM.
With `C[C@@H]1CN(c2cc(F)c(-c3cccc(CN4CCOCC4)c3)cc2Nc2ncnc(Cl)c2N)C[C@H](C)N1C` [DDO-2213_019, 6-chloro-N4-(6-fluoro-3′-(morpholinomethyl)-4-((3S,5R)-3,4,5-trimethylpiperazin-1-yl)-[1,1′-biphenyl]-3-yl)pyrimidine-4,5-diamine], in experiment [1] (setting [2]), the IC50 came to 215 nM. This compound also gave a GI50 with MV-411 cells (Table 7) of 6.98 µM.
For `C[C@H]1CN(c2cc(F)c(-c3cnc(N4CCOCC4)nc3)cc2Nc2ncnc(Cl)c2N)CCN1C` [DDO-2213_020, (S)-6-chloro-N4-(2-(3,4-dimethylpiperazin-1-yl)-4-fluoro-5-(2-morpholinopyrimidin-5-yl)phenyl)pyrimidine-4,5-diamine] the same measures were 7.44 nM and 5.21 µM.
As to `C[C@@H]1CN(c2cc(F)c(-c3cnc(N4CCOCC4)nc3)cc2Nc2ncnc(Cl)c2N)C[C@H](C)N1C` [DDO-2213_021, 6-chloro-N4-(4-fluoro-5-(2-morpholinopyrimidin-5-yl)-2-((3S,5R)-3,4,5-trimethylpiperazin-1-yl)phenyl)pyrimidine-4,5-diamine], in experiment [1] (setting [2]), the IC50 came to 23.4 nM. This compound registered a GI50 with MV-411 cells (Table 7) of 9.01 µM.
For `C[C@@H]1CN(c2cc(F)c(-c3ccc(OCC4CC4)nc3)cc2Nc2ncnc(Cl)c2N)C[C@H](C)N1C` [DDO-2213_022, 6-chloro-N4-(5-(6-(cyclopropylmethoxy)pyridin-3-yl)-4-fluoro-2-((3S,5R)-3,4,5-trimethylpiperazin-1-yl)phenyl)pyrimidine-4,5-diamine] the same measures were 41.2 nM and 3.68 µM.
As for `C[C@@H]1CN(c2ncc(-c3cc(Nc4ncnc(Cl)c4N)c(N4CCN(C)[C@@H](C)C4)cc3F)cn2)C[C@H](C)O1` [DDO-2213_023, 6-chloro-N4-(5-(2-((2S,6R)-2,6-dimethylmorpholino)pyrimidin-5-yl)-2-((S)-3,4-dimethylpiperazin-1-yl)-4-fluorophenyl)pyrimidine-4,5-diamine], the IC50 in experiment [1] (setting [2]) was determined as 3.56 nM. This compound yielded a GI50 in the experiment on MV-411 cells (Table 7) of 2.79 µM.
For `C[C@@H]1CN(c2cc(F)c(-c3ccnc(N4CCOCC4)n3)cc2Nc2ncnc(Cl)c2N)C[C@H](C)N1C` [DDO-2213_024, 6-chloro-N4-(4-fluoro-5-(2-morpholinopyrimidin-4-yl)-2-((3S,5R)-3,4,5-trimethylpiperazin-1-yl)phenyl)pyrimidine-4,5-diamine], in that order: 15 nM and 18.5 µM.
For `C[C@@H]1CN(c2cc(F)c(C3=CCCN(c4ncc(CN5CCOCC5)cn4)C3)cc2Nc2ncnc(Cl)c2N)C[C@H](C)N1C` [DDO-2213_026, 6-chloro-N^4-(4-fluoro-5-(1-(5-(morpholinomethyl)pyrimidin-2-yl)-1,2,5,6-tetrahydropyridin-3-yl)-2-((3S,5R)-3,4,5-trimethylpiperazin-1-yl)phenyl)pyrimidine-4,5-diamine] the same measures were 18.6 nM and 12.7 µM.
For `CC(C)N1CCN(c2ncc(-c3cc(Nc4ncnc(Cl)c4N)c(N4C[C@@H](C)N(C)[C@@H](C)C4)cc3F)cn2)CC1` [DDO-2213_027, 6-chloro-N4-(4-fluoro-5-(2-(4-isopropylpiperazin-1-yl)pyrimidin-5-yl)-2-((3S,5R)-3,4,5-trimethylpiperazin-1-yl)phenyl)pyrimidine-4,5-diamine], in that order: 31.3 nM and 6.56 µM.
As for `C[C@@H]1CN(c2cc(F)c(-c3ccnc(N(C)C)n3)cc2Nc2ncnc(Cl)c2N)C[C@H](C)N1C` [DDO-2213_028, 6-chloro-N4-(5-(2-(dimethylamino)pyrimidin-4-yl)-4-fluoro-2-((3S,5R)-3,4,5-trimethylpiperazin-1-yl)phenyl)pyrimidine-4,5-diamine], in experiment [1] (setting [2]), the IC50 is 51.8 nM. The GI50 with MV-411 cells (Table 7) was above 200 µM.
For `C[C@@H]1CN(c2cc(F)c(-c3ccnc(N4CCO[C@@H](C)C4)n3)cc2Nc2ncnc(Cl)c2N)C[C@H](C)N1C` [DDO-2213_029, 6-chloro-N4-(4-fluoro-5-(2-((S)-2-methylmorpholino)pyrimidin-4-yl)-2-((3S,5R)-3,4,5-trimethylpiperazin-1-yl)phenyl)pyrimidine-4,5-diamine] the same measures were 12.9 nM and 17.2 µM.
For `C[C@@H]1CN(c2ccc(-c3cc(CNC4CCCCC4)ccc3F)cc2Nc2ncnc(Cl)c2N)C[C@H](C)N1C` [DDO-2213_030, 6-chloro-N4-(5′-((cyclohexylamino)methyl)-2′-fluoro-4-((3S,5R)-3,4,5-trimethylpiperazin-1-yl)-[1,1′-biphenyl]-3-yl)pyrimidine-4,5-diamine], in that order: 418 nM and 2.43 µM.
As for `Cc1c(F)c(N)cc(C(=O)Nc2cc(-n3cc(C(=O)OCC(C)C)nn3)ccc2N2CCN(C)CC2)c1Cl` [HYBI_003, isobutyl 1-(3-(5-amino-2-chloro-4-fluoro-3-methylbenzamido)-4-(4-methylpiperazin-1-yl)phenyl)-1H-1,2,3-triazole-4-carboxylate], the IC50 in experiment [1] (setting [3]) was 15.6 nM. In the experiment on MV-411 cells (Table 6), this compound showed a GI50 of 3.41 µM.
For `COc1ccc(COC(=O)c2cn(-c3ccc(N4CCN(C)CC4)c(NC(=O)c4cc(N)c(F)c(C)c4Cl)c3)nn2)cc1` [HYBI_010], in that order: 9.62 nM and 5.95 µM.
For `CCOC(=O)[C@H](C)OC(=O)c1cn(-c2ccc(N3CCN(C)CC3)c(NC(=O)c3cc(N)c(F)c(C)c3Cl)c2)nn1` [HYBI_013] the same measures were 19.4 nM and 2.46 µM.
Consider `Cc1c(F)c(N)cc(C(=O)Nc2cc(-n3cc(C(=O)OCC4CCN(C)CC4)nn3)ccc2N2CCN(C)CC2)c1Cl` [HYBI_016], for which, in experiment [1] (setting [3]), the IC50 was determined as 20.6 nM. In addition, halving of growth in the experiment on MV-411 cells (Table 6) (GI50) required 7.1 µM.
For `Cc1c(F)c(N)cc(C(=O)Nc2cc(-n3cc(C(=O)OC4(C)CCC4)nn3)ccc2N2CCN(C)CC2)c1Cl` [HYBI_018] the same measures were 16.8 nM and 5.99 µM.
For `Cc1c(F)c(N)cc(C(=O)Nc2cc(-n3cc(C(=O)N(C)CCCO)nn3)ccc2N2CCN(C)CC2)c1Cl` [HYBI_019A], in that order: 17.1 nM and 24.9 µM.
In the case of `Cc1c(F)c(N)cc(C(=O)Nc2cc(-n3cc(C(=O)N(C)CCCN4CCOCC4)nn3)ccc2N2CCN(C)CC2)c1Cl` [HYBI_019], the IC50 in experiment [1] (setting [3]) stood at 20.4 nM. For the same compound, the concentration for 50% growth inhibition (GI50) in the experiment on MV-411 cells (Table 6) was found to be 27.1 µM.
In the case of `Cc1c(F)c(N)cc(C(=O)Nc2cc(-n3cc(C(=O)NCCCN4CCOCC4)nn3)ccc2N2CCN(C)[C@@H](C)C2)c1Cl` [HYBI_020], the IC50 in experiment [1] (setting [3]) stood at 8.23 nM. Moreover, it took 8.36 µM to inhibit growth in the experiment with MV-411 cells (Table 6) by half (GI50).
For `Cc1c(F)c(N)cc(C(=O)Nc2cc(-n3cc(C(=O)NCCCN4CCOCC4)nn3)ccc2N2C[C@@H](C)N(C)[C@@H](C)C2)c1Cl` [HYBI_021], in that order: 7.09 nM and 25.1 µM.
Take `Cc1c(F)c(N)cc(C(=O)Nc2cc(-n3cc(C(=O)NCCCN4CCOCC4)nn3)ccc2N2CCCN(C)CC2)c1Cl` [HYBI_022]: the IC50 in experiment [1] (setting [3]) was 62.3 nM. Besides, the GI50 with MV-411 cells (Table 6) came out at 17.2 µM.
For `Cc1c(F)c(N)cc(C(=O)Nc2cc(-n3cc(C(=O)NCCCN4CCOCC4)nn3)c(F)cc2N2CCN(C)CC2)c1Cl` [HYBI_023], in that order: 19.8 nM and 32 µM.
For `Cc1c(F)c(N)cc(C(=O)Nc2cc(-n3cc(C(=O)NCCCN4CCOCC4)nn3)c(F)cc2N2CCN(C)C(C)C2)c1Cl` (stereo not shown) [HYBI_027], in that order: 10.8 nM and 20 µM.
For `Cc1c(F)c(N)cc(C(=O)Nc2cc(-n3cc(C(=O)NCCCN4CCOCC4)nn3)c(F)cc2N2C[C@@H](C)N(C)[C@@H](C)C2)c1Cl` [HYBI_028], in that order: 5.24 nM and 30.9 µM.

By GI50 is commonly meant the concentration at which growth is held to half of that of the control. Higher therefore signals lower sensitivity of the cells.

Source of the values: patent publication US20230286925A1, “PHENYL TRIAZOLE MLL1-WDR5 PROTEIN-PROTEIN INTERACTION INHIBITOR” (HUYABIO International, LLC, priority 2022, published 2023).
